Source: patent US6232305A, “Substituted amino bicyclic-β-lactam penam and cepham derivatives as cysteine protease inhibitors” (Naeja Pharmaceutical Inc., priority 1998, dated 2001)
pIC50: −log10 of the molar value.

Key:
[1] = target: Cathepsin B (Rattus norvegicus, UniProt P00787); assay: In vitro inhibition of cathepsin B; assay type: biochemical; settings: r rat cathepsin B; substrate N-CBZ-Phe-Arg-AMC; pH 5.1; 10 min incubation at room temperature
Experimental: TEST EXAMPLE 1 In Vitro Assay Procedure for Cathepsin B The compounds of formula I were tested for inhibition of cathepsin B using the known method (A. J. Barret et al., Biochem. J. 1982, 201, 189-198). […] After 10 min of incubation at room temperature, a 20 μl of 5 mM substrate (N-CBZ-Phe-Arg-AMC, dissolved in DMSO) was added to initiate reaction. Reading is followed up for 10 min at the fluoroscan reader (excitation at 380 nm emission at 460 nm).

[2] = target: Cathepsin L (Rattus norvegicus, UniProt P07154); assay: In vitro inhibition of cathepsin L; assay type: biochemical; settings: r rat cathepsin L; substrate N-CBZ-Phe-Arg-AMC; pH 5.0; 10 min incubation at room temperature
Experimental: TEST EXAMPLE 2 In Vitro Assay Procedure for Cathepsin L […] After 10 min of incubation at room temperature, a 20 μl of 1 mM substrate (N-CBZ-Phe-Arg-AMC, dissolved in DMSO) was added to initiate reaction. Reading is followed up for 10 min at the fluoroscan reader (excitation at 380 nm emission at 460 nm).

Cathepsin B, sequence (P00787 80-339): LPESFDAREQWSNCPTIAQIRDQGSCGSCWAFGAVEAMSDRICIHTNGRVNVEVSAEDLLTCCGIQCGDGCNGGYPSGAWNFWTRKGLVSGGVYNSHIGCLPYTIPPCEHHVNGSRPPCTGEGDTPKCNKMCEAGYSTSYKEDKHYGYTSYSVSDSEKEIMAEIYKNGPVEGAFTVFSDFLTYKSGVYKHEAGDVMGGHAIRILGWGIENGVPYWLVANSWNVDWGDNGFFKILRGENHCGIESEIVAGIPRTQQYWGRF
Cathepsin L, sequence (P07154 114-334): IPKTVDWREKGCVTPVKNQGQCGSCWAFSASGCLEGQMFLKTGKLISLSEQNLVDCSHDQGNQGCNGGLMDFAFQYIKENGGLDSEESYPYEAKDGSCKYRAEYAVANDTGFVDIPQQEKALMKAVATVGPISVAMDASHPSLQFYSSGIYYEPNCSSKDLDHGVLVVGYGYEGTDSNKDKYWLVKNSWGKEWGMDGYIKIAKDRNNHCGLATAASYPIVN

Row | Compound | pIC50 [1] | pIC50 [2]
1 | O=C(N[C@@H](Cc1ccccc1)C(=O)N[C@@H]1C(=O)N2CC(O)CS[C@@H]12)OCc1ccccc1 (stereo partly drawn) [Example 17, (6S,7R)-7-(2S-2-benzyloxycarbonylamino-2-phenylmethyl-acetamido)-3-hydroxy-5-thia-1-azabicyclo [4,2,0] octan-8-one] | < 4.30 | 5.66
2 | O=C(CCc1ccccc1)N[C@@H](Cc1cccs1)C(=O)N[C@@H]1C(=O)N2CCS[C@@H]12 [Example 8, (5S,6R)-6-{2S-2-(3-phenylpropionoyl)amino-2-(2-thienyl)methyl-acetamido}-4-thia-1-azabicyclo [3,2,0] heptan-7-one] | < 4.30 | 4.93
3 | COC(=O)[C@@H]1N2C(=O)[C@@H](NC(=O)[C@H](Cc3ccccc3)NC(=O)OCc3ccccc3)[C@H]2S(=O)(=O)C1(C)C [Example 18, Methyl (2S,5R,6R)-6-(2S-2-benzyloxycarbonylamino-2-phenylmethyl-acetamido)-3,3-dimethyl-7-oxo-4,4-dioxo4-thia-1-azabicyclo[3,2,0]heptane-2-carboxylate] | 4.55 | 5.76
4 | O=C(CCc1ccccc1)N[C@@H](Cc1cccc(F)c1)C(=O)N[C@@H]1C(=O)N2CCS[C@@H]12 [Example 10, (5S,6R)-6-{2S-2-(3-phenylpropionoyl)amino-2-(3-fluorophenyl)methyl-acetamido}4-4-thia-1-azabicyclo [3,2,0] heptan-7-one] | < 4.30 | 4.95
5 | O=C(N[C@@H](Cc1ccccc1)C(=O)N[C@@H]1C(=O)N2CC[S+]([O-])[C@@H]12)OCc1ccccc1 (stereo partly drawn) [Example 21, (5S,6R)-6-{2S-2-benzyloxycarbonylamino-2-phenylmethyl-acetamido}-4-oxo-4-thia-1-azabicyclo [3,2,0] heptan-7-one] | 4.79 | 7.17
6 | O=C(N[C@@H](Cc1ccccc1)C(=O)N[C@@H]1C(=O)N2CCCS[C@@H]12)OCc1ccccc1 [Example 14, (6S,7R)-7-(2S-2-benzyloxycarbonylamino-2-phenylmethyl-acetamido)-5-thia-1-azabicyclo [4,2,0] octan-8-one] | < 4.30 | < 4.30
7 | O=C(CCc1ccccc1)N[C@@H](Cc1ccc2ccccc2c1)C(=O)N[C@@H]1C(=O)N2CCS[C@@H]12 [Example 6, (5S,6R)-6-{2S-2-(3-phenylpropionoyl)amino-2-(2-naphthyl)methyl-acetamido}-4-thia-1-azabicyclo [3,2,0] heptan-7-one] | 4.98 | 6.37
8 | O=C(CCc1ccccc1)N[C@@H](Cc1ccc2ccccc2c1)C(=O)N[C@@H]1C(=O)N2CCS(=O)(=O)[C@@H]12 [Example 7, (5S,6R)-6-{2S-2-(3-phenylpropionoyl)amino-2-(2-naphthyl)methyl-acetamido}-4,4-dioxo-4-thia-1-azabicyclo [3,2,0] heptan-7-one] | 6.41 | 8.52
9 | O=C(CCc1ccccc1)N[C@@H](CC1CCCCC1)C(=O)N[C@@H]1C(=O)N2CCS[C@@H]12 [Example 4, (5S,6R)-6-{2S-2-(3-phenylpropionoyl)amino-2-cyclohexylmethyl-acetamido}-4-thia-1-azabicyclo [3,2,0] heptan-7-one] | < 4.30 | < 4.30
10 | CC1(C)[C@H](C(=O)O)N2C(=O)[C@@H](NC(=O)[C@H](Cc3ccccc3)NC(=O)CCc3ccccc3)[C@H]2S1(=O)=O [Example 19, (2S,5R,6R)-6-{2S-2-(3-phenylpropionoyl)amino-2-phenylmethyl-acetamido}-3,3-dimethyl-7-oxo-4,4-dioxo-4-thia-1-azabicyclo [3,2,0] heptane-2-carboxylic acid] | < 4.30 | 5.17
11 | O=C(CCc1ccccc1)N[C@@H](CC1CCCCC1)C(=O)N[C@@H]1C(=O)N2CCS(=O)(=O)[C@@H]12 [Example 5, (5S,6R)-6-{2S-2-(3-phenylpropionoyl)amino-2-cyclohexylmethyl-acetamido}-4,4-dioxo-4-thia-1-azabicyclo [3,2,0] heptan-7-one] | 6.37 | 9.15

Continued, values first:

Row | pIC50 [1] | pIC50 [2] | Compound
12 | 6.37 | 8.52 | O=C(CCc1ccccc1)N[C@@H](Cc1cccs1)C(=O)N[C@@H]1C(=O)N2CCS(=O)(=O)[C@@H]12 [Example 9, (5S,6R)-6-{2S-2-(3-phenylpropionoyl)amino-2-(2-thienyl)methyl-acetamido}-4,4-dioxo-4-thia-1-azabicyclo [3,2,0] heptan-7-one]
13 | < 4.30 | 7.36 | O=C(N[C@H](Cc1ccccc1)C(=O)N[C@@H]1C(=O)N2CCS(=O)(=O)[C@@H]12)OCc1ccccc1 [Example 20, (5S,6R)-6{2R-2-benzyloxycarbonylamino-2-phenylmethyl-acetamido}-4,4-dioxo4-thia-1-azabicyclo[3,2,0] heptan-7-one]
14 | 5.22 | 8.02 | O=C(N[C@@H](Cc1ccccc1)C(=O)N[C@@H]1C(=O)N2CCS(=O)(=O)[C@H]12)OCc1ccccc1 [Example 3, (5R,6R)-6-(2S-2-benzyloxycarbonylamino-2-phenylmethyl-acetamido)-4,4-dioxo-4-thia-1-azabicyclo [3,2,0] heptan-7-one]
15 | 6.46 | 8.85 | O=C(N[C@@H](Cc1ccccc1)C(=O)N[C@@H]1C(=O)N2CCS(=O)(=O)[C@@H]12)OCc1ccccc1 [Example 2, (5S,6R)-6-(2S-2-benzyloxycarbonylamino-2-phenylmethyl-acetamido)-4,4-dioxo-4-thia-1-azabicyclo [3,2,0] heptan-7-one]
16 | 5.89 | 8.77 | O=C(N[C@@H](Cc1cccnc1)C(=O)N[C@@H]1C(=O)N2CCS(=O)(=O)[C@@H]12)OCc1ccccc1 [Example 13, (5S,6R)-6-{2S-2-benzyloxycarbonylamino-2-(3-pyridyl)methyl-acetamido}-4,4-dioxo-4-thia-1-azabicyclo [3,2,0] heptan-7-one]
17 | < 4.30 | 5.67 | O=C(N[C@@H](Cc1ccccc1)C(=O)N[C@@H]1C(=O)N2CCCS(=O)(=O)[C@@H]12)OCc1ccccc1 [Example 15, (6S,7R)-7-(2S-2-benzyloxycarbonylamino-2-phenylmethyl-acetamido)-5,5-dioxo-5-thia-1-azabicyclo [4,2,0] octan-8-one]
18 | 6.00 | 8.48 | O=C(CCc1ccccc1)N[C@@H](Cc1cccc(F)c1)C(=O)N[C@@H]1C(=O)N2CCS(=O)(=O)[C@@H]12 [Example 11, (5S,6R)-6-{2S-2-(3-phenylpropionoyl)amino-2-(3-fluorophenyl)methyl-acetamido}-4,4-dioxo-4-thia-1-azabicyclo [3,2,0] heptan-7-one]
19 | < 4.30 | – | O=C(N[C@@H](Cc1ccccc1)C(=O)N[C@@H]1C(=O)N2CCCS(=O)(=O)[C@H]12)OCc1ccccc1 [Example 16, (6R,7R)-7-(2S-2-benzyloxycarbonylamino-2-phenylmethyl-acetamido)-5,5-dioxo-5-thia-1-azabicyclo [4,2,0] octan-8-one]
20 | < 4.30 | 5.18 | O=C(N[C@@H](Cc1ccccc1)C(=O)N[C@@H]1C(=O)N2CCS[C@@H]12)OCc1ccccc1 [Example 1, (5S,6R)-6-(2S-2-benzyloxycarbonylamino-2-phenylmethyl-acetamido)-4-thia-1-azabicyclo [3,2,0] heptan-7-one]
21 | < 4.30 | 4.93 | O=C(N[C@@H](Cc1cccnc1)C(=O)N[C@@H]1C(=O)N2CCS[C@@H]12)OCc1ccccc1 [Example 12, (5S,6R)-6-{2S-2-benzyloxycarbonylamino-2-(3-pyridyl)methyl-acetamido}-4-thia-1-azabicyclo [3,2,0] heptan-7-one]
